These results are taken from patent US20130338032A1, “ASSAY FOR DETERMINING EPIGENETIC PROFILES OF MARKERS OF FRAGILE X ALLELES” (Murdoch Childrens Research Institute, priority 2009, published 2013).

Common to all, as to assay type: cell-based, human
One assay concerns FREE1. Briefly: FREE1 methylation (MALDI-TOF MS) in lymphoblast cell lines treated with 5-aza. Here is the method: (§1) FIG. 1B through J is a graphical representation of the expression of the FMR1 and FRR4 mRNA and FREE1 methylation in lymphoblast cultures with selectively depleted DNMTI. Cell lines from (B, C, D) a HC cell line (30 CGGs), (E, F, G) a PM cell line (103 CGGs) and (H, I, J) a FM cell line from an FXS individual (490 CGGs) were cultured for 3 days in standard RPMI medium/10% v/v fetal bovine serum treated with different doses of 5-aza-deoxycytidine, in triplicate wells, with half of the cells from each well taken for DNA methylation analysis, and the other half for mRNA analyses. FREE1 methylation for each sample was examined from duplicate bisulfite reactions, with single PCR products made from each conversion. The 0.1 methylation output ratio cutoff was not used for this experiment due to an increased number of technical replicates, with values expressed as means of six technical replicates per condition. Methylation and mRNA levels were assessed in the same wells using MALDI-TOF MS and real-time PCR, respectively. The error bars represent standard error (n=3 to 6). All conditions were compared to 0 μM 5-aza control: ***-p<0.001; **-p<0.05.
Lymphoblast cell lines were established by Epstein-Barr virus (EBV) transformation from peripheral blood of individuals with: 30, 170 and 490 repeats. The cell lines were treated with 5 aza based on a previously described protocol (Pietrobono et al, 2002, supra). Briefly, A 10 mM stock solution of 5-aza (Sigma-Aldrich) was initially prepared in sterile water. The cell-viability counts and cell composition were determined by trypan blue exclusion, using a hemocytometer. Cells were then resuspended at a density of […] in RPMI medium (Sigma St Luis, Mo., USA)/10% v/v Fetal bovine serum (CSL) at 37° C., 5% v/v CO2, supplemented with of 5-aza stock and thoroughly resuspended. The cells were cultured in triplicate wells for each of the four final 5-Aza concentrations of: 0, 1, 10 and 100 μM. […]

For a further assay, the system named is FMR1 mRNA. Kind of assay: FMR1 mRNA (real-time PCR) in lymphoblast cell lines treated with 5-aza. Conditions: 5-aza 0, 1, 10, 100 μM, 3 days. Here is the method: as §1, with “All conditions were compared to 0 μM 5-aza control: ***-p<0.001; **-p<0.05.” left out
(§2) Lymphoblast cell lines were established by Epstein-Barr virus (EBV) transformation from peripheral blood of individuals with: 30, 170 and 490 repeats. […] The cell-viability counts and cell composition were determined by trypan blue exclusion, using a hemocytometer. […]
For orientation: Quantitative PCR measures a nucleic acid by following its amplification.

In a further assay the test system is FMR4/ASFMR1 mRNA. Kind of assay: FMR4/ASFMR1 mRNA (real-time PCR) in lymphoblast cell lines treated with 5-aza. Here is the method:
as §1, §2
Total RNA was extracted and purified using the Rneasy extraction kit, as per manufacturer's instructions (Qiagen Inc., Hilden, Germany). RNA concentrations were measured in triplicate using a NanoDrop ND-1000 Spectrophotometer, with purity being determined by the A260/A280 ratio using the expected values between 1.8 and 2. Total RNA quality and the degree of DNA contamination was also assessed using capillary electrophoresis Standard Sens Kit (Bio-rad), which involved descriptive comparison of chromatographic features based on previous publications using this system (Fleige and Pfaffl, Mol Aspects Med 27(2-3):126-139, 2006). […]

Where [1] appears, read: GZ and PM cell lines, 5-aza 0, 1, 10, 100 μM, 3 days.
[2] abbreviates: cell lines for FM carriers affected with FXS, 5-aza 0, 1, 10, 100 μM, 3 days.
The mark [3] stands for this setting: cell lines from carriers of CGG alleles ranging from normal size to FM, 5-Aza treatment.

Molecules are shown by their SMILES.

As for `Nc1ncn([C@H]2C[C@H](O)[C@@H](CO)O2)c(=O)n1` [5-aza, 5-aza-2′-deoxycytidine], the FREE1 methylation result with FREE1 (setting [1]) is given as “further demethylation of FREE1”; in the assay on FREE1 (setting [2]), “demethylation of FREE1”; in the assay on FREE1 (setting [3]) it was “de-methylation of the FREE1”. Also, the “FMR1 mRNA levels” value with FMR1 mRNA (GZ and PM cell lines) is on record as “increase”. In addition, in the assay with FMR1 mRNA (cell lines for FM carriers affected with FXS), the “mRNA levels of FMR1” value was “increase in mRNA levels”. Besides, in the assay with FMR4/ASFMR1 mRNA (setting [1]), the “ASFMR1/FMR4 mRNA levels” value was “increase”. For the same compound, the “mRNA levels of ASFMR1/FMR4” value in the assay on FMR4/ASFMR1 mRNA (setting [2]) is “increase in mRNA levels”. Moreover, the “FMR4/ASFMR1 transcription within the FREE1” value in the assay with FMR4/ASFMR1 mRNA (setting [3]) was “increase FMR4/ASFMR1 transcription”.
